Where two headings read alike, the source gives them in different places.
Tests used:
[1] = Plasma pharmacokinetics in phase I patients (HPLC, two-compartment model); assay type: in vivo
Description: British Joumal of Cancer (1998) 77(5), 808-81 1 ? […] Penclomedine administration by 1-h intravenous infusion on 5 consecutive days was repeated 3 weekly in the absence of dose-limiting toxicity (DLT) or disease progression. Five dose levels were investigated (22.5-340 mg m-2 day-'). Eight men and eight women were entered, median age 59 years (range 39-73 years), with good performance status (ECOG 0/1) in 11 patients. A total of 13 out of 16 patients had received previous chemotherapy. […] Neurotoxicity developed during the 1-h infusion and persisted for a variable period (maximum 5 h) after infusion. […] Penclomedine pharmacokinetic studies confirmed preclinical evidence of extensive apparent distribution (931 m-2) and rapid clearance (41 1 h-1m-2). […] Therefore, an experimental formulation of penclomedine as a 10% oil in water emulsion was developed for intravenous (i.v.) administration. […] Single treatments were effective when administered intra- venously, but the dose used in a rapid bolus push was limited by acute lethality. […] Penclomedine has also been tested in drug-resistant cell lines (doxorubicin, vincristine, cisplatinum, methotrexate, Ara-C and 5-FU) including the multidrug-resistant (MDR) phenotype. […] Preclinical toxicology studies were performed in mice, rats, and dogs. In mice, the maximum tolerated dose (MTD) was 150 mg kg-' (450 mg m-2) as a single i.v. dose and 80 mg kg-' day-' (240 mg m-2 day-'; total dose 1200 mg m-2) on a daily x 5 schedule. […] 808 Phase I trial of penclomedine 809 The aims of this phase I study were: (a) to determine the MTD of penclomedine when administered i.v. once daily for 5 days every 21 days; (b) to identify the toxicity profile of penclomedine and to determine whether this is predictable, tolerable and reversible, and to define dose-limiting toxicities in patients; (c) to determine the pharmacokinetics of penclomedine at different dose levels; (d) to define a safe dose for subsequent phase II studies of anti-tumour activity; and (e) to observe and record any possible therapeutic effectiveness of penclomedine. MATERIALS AND METHODS This was an open non-randomized study with dose escalation that continued until the dose-limiting toxicity was defined. A minimum of three patients were treated at each dose level. […] All patients were required to give written informed consent. Before commencing the study ethical approval was obtained from the Medicine and Clinical Oncology Research Ethics Sub-Committee of Lothian Health Board (ref. MCO/ 105/92) and the study was conducted according to the Helsinki Declaration. This trial was conducted under the auspices of the Cancer Research Campaign Phase I/II Clinical Trials Committee. […] Adequate bone marrow, hepatic and renal function was required (WBC > 3 x 109 1-1, platelet count > 100 x 109 1-1, serum creatinine < 120 gmmol 1-l, bilirubin < 30 gmol 1-1, and other liver function tests within twice the upper limit of normal (unless known to be related to liver metastases)). Patients were deemed ineligible in the event of pregnancy or lactation, previous chemotherapy or radiotherapy within the last 4 weeks (6 weeks for nitrosoureas or mitomycin C), the presence of another non-malignant disease that in the opinion of the investi- gator was incompatible with this protocol, concurrent administra- tion of another investigational drug, or cytotoxic, hormonal or biological therapy. Patients with brain metastases or primary brain tumours were excluded and also patients with epilepsy or chronic neurological disorders that might interfere with the assessment of neurological toxicity. Penclomedine was formulated as a de novo emulsion (in 100 ml: soybean oil, […]; lecithin, 30 mg; glycerin 20 mg and water for injection) and stored as intact vials under refrigeration (2-8?C). Penclomedine emulsions were diluted up to 1:10 using 5% dextrose solution. […] Penclomedine was supplied by the NCI DCT under the special foreign exemption mechanism established with the FDA. […]

[2] = system: subrenal capsule xenograft of the human MX-1 mammary carcinoma; design: method as in Harrison 1991; settings: oral 300 mg kg-1 day-1 on days 13, 17 and 21; for 40 days after the last treatment; ref Harrison 1991; cited from earlier work
[3] = system: drug-resistant cell lines; design: method as in Harrison et al, 1991; settings: ref Harrison et al, 1991, cited from earlier work
[4] = design: method as in Reid et al, 1992; settings: ref Reid et al, 1992, cited from earlier work
[5] = cited from earlier work
[6] = design: method as in Reid et al, 1992; settings: ref Reid et al, 1992; cited from earlier work
[7] = design: method as in personal communication, AC Smith, NCI; settings: mice, ref personal communication, AC Smith, NCI, cited from earlier work
cerebellum = system: cerebellum; design: method as in O'Reilly et al, 1996a; settings: ref O'Reilly et al, 1996a, cited from earlier work
malignancy = assay: Phase I study: tumour response (UICC criteria); assay type: in vivo; settings: 16 patients, all dose levels
Description: British Joumal of Cancer (1998) 77(5), 808-81 1 ? […] Penclomedine administration by 1-h intravenous infusion on 5 consecutive days was repeated 3 weekly in the absence of dose-limiting toxicity (DLT) or disease progression. Five dose levels were investigated (22.5-340 mg m-2 day-'). Eight men and eight women were entered, median age 59 years (range 39-73 years), with good performance status (ECOG 0/1) in 11 patients. A total of 13 out of 16 patients had received previous chemotherapy. […] Neurotoxicity developed during the 1-h infusion and persisted for a variable period (maximum 5 h) after infusion. […] Penclomedine pharmacokinetic studies confirmed preclinical evidence of extensive apparent distribution (931 m-2) and rapid clearance (41 1 h-1m-2). […] Therefore, an experimental formulation of penclomedine as a 10% oil in water emulsion was developed for intravenous (i.v.) administration. […] Single treatments were effective when administered intra- venously, but the dose used in a rapid bolus push was limited by acute lethality. […] Penclomedine has also been tested in drug-resistant cell lines (doxorubicin, vincristine, cisplatinum, methotrexate, Ara-C and 5-FU) including the multidrug-resistant (MDR) phenotype. […] Preclinical toxicology studies were performed in mice, rats, and dogs. […]

[8] = system: mouse CD8F, mammary carcinoma; design: method as in Plowman et al, 1989; settings: ref Plowman et al, 1989; cited from earlier work
[9] = system: human MX-1 mammary tumour xenograft; settings: cited from earlier work
[10] = in vivo
Description: British Joumal of Cancer (1998) 77(5), 808-81 1 ? […] Penclomedine administration by 1-h intravenous infusion on 5 consecutive days was repeated 3 weekly in the absence of dose-limiting toxicity (DLT) or disease progression. Five dose levels were investigated (22.5-340 mg m-2 day-'). Eight men and eight women were entered, median age 59 years (range 39-73 years), with good performance status (ECOG 0/1) in 11 patients. A total of 13 out of 16 patients had received previous chemotherapy. […] Neurotoxicity developed during the 1-h infusion and persisted for a variable period (maximum 5 h) after infusion. […] Penclomedine pharmacokinetic studies confirmed preclinical evidence of extensive apparent distribution (931 m-2) and rapid clearance (41 1 h-1m-2). […] Therefore, an experimental formulation of penclomedine as a 10% oil in water emulsion was developed for intravenous (i.v.) administration. […] Single treatments were effective when administered intra- venously, but the dose used in a rapid bolus push was limited by acute lethality. […] Penclomedine has also been tested in drug-resistant cell lines (doxorubicin, vincristine, cisplatinum, methotrexate, Ara-C and 5-FU) including the multidrug-resistant (MDR) phenotype. […] Preclinical toxicology studies were performed in mice, rats, and dogs. In mice, the maximum tolerated dose (MTD) was 150 mg kg-' (450 mg m-2) as a single i.v. dose and 80 mg kg-' day-' (240 mg m-2 day-'; total dose 1200 mg m-2) on a daily x 5 schedule. […] 808 Phase I trial of penclomedine 809 The aims of this phase I study were: (a) to determine the MTD of penclomedine when administered i.v. once daily for 5 days every 21 days; (b) to identify the toxicity profile of penclomedine and to determine whether this is predictable, tolerable and reversible, and to define dose-limiting toxicities in patients; (c) to determine the pharmacokinetics of penclomedine at different dose levels; (d) to define a safe dose for subsequent phase II studies of anti-tumour activity; and (e) to observe and record any possible therapeutic effectiveness of penclomedine. MATERIALS AND METHODS This was an open non-randomized study with dose escalation that continued until the dose-limiting toxicity was defined. A minimum of three patients were treated at each dose level. […] All patients were required to give written informed consent. Before commencing the study ethical approval was obtained from the Medicine and Clinical Oncology Research Ethics Sub-Committee of Lothian Health Board (ref. MCO/ 105/92) and the study was conducted according to the Helsinki Declaration. This trial was conducted under the auspices of the Cancer Research Campaign Phase I/II Clinical Trials Committee. […]

[11] = design: method as in Prankerd et al, 1989; settings: ref Prankerd et al, 1989; cited from earlier work
[12] = system: human H82 small cell lung carcinoma xenografts; design: method as in Harrison 1991; settings: oral 445 mg kg-1 day-1; ref Harrison 1991; cited from earlier work
[13] = design: method as in O'Reilly et al, 1996b; settings: ref O'Reilly et al, 1996b; cited from earlier work
[14] = mean of 10 patients, 150-340 mg m-2 day-1, initial 24 h

In the case of COc1nc(C(Cl)(Cl)Cl)c(Cl)c(OC)c1Cl [penclomedine, 3,5-Dichloro-2,4-dimethoxy-6-(trichloromethyl)pyridine], the “dose dependence of total body clearance” value ([1]; 150-340 mg m-2 day-1) is reported as “did not vary with dose”, the “metabolites in plasma of patients” value ([1]; human, in vivo) is reported as “not detected” and the “apparent distribution volume (mean Vc + Vp)” value ([1]; human, in vivo, iv) is reported as 93 l m-2. For the same compound, the half-life ([1]; human, in vivo, patients, read-out: apparent elimination phase half-life (t1/2 beta) (converted)) was 2.4 h, the half-life ([1]; human, in vivo, patients, read-out: initial distribution phase half-life (t1/2 alpha)) was 0.2 h and the “Cld (distributional clearance), mean” value [1, 14] was 43 l h-1 m-2. For the same compound, the “Clt (total body clearance), mean” value [1, 14] was 41 l h-1 m-2, the clearance ([1]; patients, i.v. infusion, abstract) was 41 l h-1 m-2 and the tumour regression [2] was “complete regression of all tumours”. The “activity in resistant versus wild-type cell lines” value ([3]; lines resistant to doxorubicin, vincristine, cisplatinum, methotrexate, Ara-C and 5-FU, including MDR phenotype) was “equivalent activity”, the “sensitivity of AMSA-resistant line” value [3] was “collaterally sensitive” and the “sensitivity of L-PAM-resistant line” value [3] was “resistant”. The “metabolism of radiolabelled penclomedine” value ([4]; after both i.v. and oral administration) was “extensive”, the clearance ([4]; mice, parent drug) was 114 ml min-m m-2 and the half-life ([4]; mice, parent drug) was 1.15 h. The volume of distribution ([4]; mice, parent drug) was 4.8 l m-2, the “oral bioavailability of the parent compound” value ([4]; mice) was 2% and the “toxicity at the MTD” value ([5]; beagle dogs, 90 mg kg-1, ref Dixit et al, 1992) was “reversible myelosuppression”. For the same compound, the plasma penclomedine concentrations ([5]; beagle dogs, 90 mg kg-1 dose level, not associated with neurotoxicity, ref Dixit et al, 1992) was 6 to 9 µg/mL, the “maximum tolerated dose (MTD)” value ([5]; beagle dogs, single 5-h infusion, ref Dixit et al, 1992) was 90 mg/kg and the “toxicity at higher dosages” value ([5]; dog, in vivo) was “dose-limiting neurotoxicity”. The in vitro metabolism [6] was “subject to metabolism under both oxidative and reductive conditions”, the dose-limiting toxicity ([7]; daily x 5 schedule) was “bone marrow suppression” and the “maximum tolerated dose (MTD), total dose” value ([7]; daily x 5 schedule) was 1200 mg m-2. For the same compound, the dose-limiting toxicity ([7]; single dose schedule) was “neurological”, the “cerebellar finding in preclinical models” value (cerebellum; after intraperitoneal administration) was “Purkinje cell loss” and the “single dose producing visible pathological changes in the cerebellum” value (cerebellum; rats, intraperitoneal injection, may be irreversible) was ≥ 150 mg kg-1. The anti-tumour responses (malignancy) was “no anti-tumour responses were documented”, the anti-tumour activity [8] was “good activity” and the tumour-free survivors ([9]; advanced stage MX-1 mammary carcinoma, oral 135 mg kg-1 day-1 for 5 days, oil in water emulsion, ref Harrison et al, 1991) was “ten out of ten”. For the same compound, the anti-tumour activity ([9]; human MX-1 mammary tumour xenograft, ref Plowman et al, 1989) was “good activity”, the “persistence of neurotoxicity after infusion (maximum)” value ([10]; both, human) was ≤ 5 h and the “dose at which dose-limiting toxicity occurred” value ([10]; both, human, iv, 5 days) was 340 mg m-2 day-1. For the same compound, the “antiproliferative toxicities (myelosuppression, mucositis)” value [10] was “No antiproliferative toxicities were noted”, the “dose-limiting toxicity (DLT)” value ([10]; iv) was “Neurotoxicity (cerebellar ataxia and dizziness)” and the “solubility in non-polar solvents and lipids” value [11] was “soluble”. For the same compound, the solubility in water [11] was “poorly soluble”, the complete regressions [12] was “six out of ten” and the partial regressions [12] was “four out of ten”. The “chemical species found in rat brain” value [13] was “predominant chemical species”.
